# According to patent publication US11198869B2, “Angelman syndrome antisense treatment” (The Texas A&M University System, priority 2017, dated 2021):
# Oligonucleotides are written 5' to 3', each unit as a sugar letter and its base; * is a phosphorothioate linkage, no mark a phosphodiester; rarer units and linkages stand in square brackets, end groups in braces. Plain capitals give the bases only. l = locked nucleic acid (LNA); [5mC] = 5-methylcytosine; d = 2'-deoxy (DNA)
# Key:
# Assay type in all cases: cell-based, human
# UBE3A-AS [1] = experiment: UBE3A-AS steady state RNA (TaqMan qRT-PCR) in GABAergic iPSC-derived neurons; details: for Difference, UBE3A-AS RNA level: ASOs 10 μM; for Cluster (hierarchical clustering of fitted dose response curves): candidate ASOs, Cluster 1 representing the 9 most potent ASOs
# Procedure: (§1) Human-specific ASOs were then designed to target this region, which included four ASOs targeting non-polymorphic regions in human and regions conserved (100%) with macaque (Rhesus and Cynomolgus) (Table 7 and FIG. 3A). Human induced pluripotent stem cell (iPSC) neural precursor cells were differentiated into GABAergic neurons for 14 DIV and then treated with a control ASO [ASO-C (10 μM, n=3)], Topotecan [Topo (1 μM, n=2)], and six ASOs targeting UBE3A-AS [ASO-1, ASO-2, ASO-3, ASO-4, ASO-5, and ASO-6 (10 μM, n=3)]. Additionally, an ASO targeting an intronic region downstream of SNORD109B was included (ASO-7). Six days post-treatment (20 DIV), RNA was isolated from the neurons and the steady state RNA levels of UBE3A-AS and UBE3A were estimated relative to the control treatment (FIG. 3B).
# The potency of ASO-4 was further examined given its effect on UBE3A-AS RNA levels. GABAergic iPSC-derived neurons were treated at 14 DIV with a 10-point ½ log dose response curve of ASO-4 and Topotecan, as a positive control and for comparisons between treatment [1 nM, 3 nM, 10 nM, 30 nM, 100 nM, 300 nM, 1 μM, 3 μM, 10 μM, and 30 μM (ASO-4, n=6; Topotecan, n=2)]. At 20 DIV, the steady state RNA levels of UBE3A-AS were measured and dose response curves fitted to estimate the IC50 and Emax (i.e., maximum UBE3A-AS inhibition) (Table 9 and FIG. 4A). […]
# Additional ASOs targeting the 5′-end of UBE3A-AS were then designed to optimize the target sequences of ASO-4 (ASO-4.1, ASO-4.2, ASO-4.3, and ASO-4.4) as well as two other target regions, ASO-3 (ASO-3.1 and ASO-3.2) and ASO-6 (ASO-6.1) (Table 11). Additionally, ASO-4 was manufactured at two different vendors for comparative purposes (ASO-4.S, Sigma; ASO-4.I, Integrated DNA Technologies). Human iPSC-derived neurons (GABAergic) were treated at 14 DIV with a […] ½ log dose curve of ASO-3.1, ASO-3.2, ASO-4.S, ASO-4.I, ASO-4.1, ASO-4.2, ASO-4.3, ASO-4.4, and ASO-6.1 [30 nM, 100 nM, 300 nM, 1 μM (n=6)]. At 20 DIV, the IC50 and Emax of each ASO was estimated as described above (FIG. 5A-B and Table 12). […] No significant difference was observed between ASO-4.S and ASO-4.I.
# (§2) The potency of ASO-4 and ASO-6.1 was further examined in iPSC-derived neurons at a later time point in differentiation. GABAergic iPSC-derived neurons were treated at 29 DIV with a 10-point ½ log dose response curve of ASO-4 and ASO-6.1 [1 nM, 3 nM, 10 nM, 30 nM, 100 nM, 300 nM, 1 μM, 3 μM, 10 μM, and 30 μM (n=3)]. At 35 DIV, the IC50 and Emax of each ASO was estimated as described above (FIG. 5C-D and Table 14). The dose response curves of ASO-4 and ASO-6.1 were not similar (Parallelism test: F(3,172)=22.7, p<0.0001).
# (§3) GABAergic and glutamatergic induced pluripotent stem cell (iPSC) derived neural precursor cells (NRC-100-010-001 and GNC-301-030-001, Cellular Dynamics International, Madison Wis.) were differentiated into neurons according to the manufactures protocol. Briefly, neural precursor cells were thawed and resuspended in chemically defined medium and added to sterile-culture plates coated with poly-D-lysine and laminin. The medium was replaced 24 hr after plating and then one-half of the medium was replaced every 3-5 days afterwards.
# (§4) For cultured iPSC-derived neurons, RNA isolation and cDNA synthesis were performed using the Cell-to-CT kit (Thermo Fisher Scientific) in a lysate volume of 55 μl.
# The steady state RNA levels of target transcripts were measured using TaqMan quantitative reverse-transcription PCR (qRT-PCR) assays. Total reaction volume was 10 uL, including 2 μl of cDNA, 1× Gene Expression Master mix (4369016, Thermo Fisher Scientific, Waltham, Mass.), and 1× TaqMan primer assay (Thermo Fisher Scientific). Cycling conditions were 2 minutes at 50° C., 10 minutes at 95° C., and 40 cycles of 15 seconds at 95° C. and 1 minute at 60° C., with readings taken at the 60° C. step of every cycle. […]
# UBE3A = UBE3A steady state RNA (qRT-PCR) in GABAergic iPSC-derived neurons; details: ASOs 10 μM
# Procedure: as §1
# The effects of ASO-4 and Topotecan were then examined on the SNORD116, IPW, SNORD115, and SNORD109A RNAs, which are located upstream of the ASO-4 target region (see FIG. 1A).
# The potency of ASO-4 was further examined in iPSC-derived neurons at a later time point in differentiation. GABAergic iPSC-derived neurons were treated at 59 DIV with a control ASO [ASO-C, 10 μM (n=3)] and ASO-4 [1 uM, 5 μM, and 10 μM (n=3)], and the steady state RNA levels of UBE3A-AS and UBE3A were measured as described above (FIG. 4G). Unlike neurons treated with ASO-4 at an earlier time point, the RNA levels of UBE3A and UBE3A-AS were highly inversely correlated (FIGS. 4H and 4I). For example, the effect of ASO-4 (10 μM) on UBE3A-AS RNA levels was similar between neurons treated at 14 and 59 DIV [20 DIV: UBE3A-AS: ↓87% (95% confidence intervals (CI): 80 to 95%); 65 DIV: ↓81% (95% CI: 74 to 88%)], whereas the effect of ASO-4 on UBE3A RNA levels was substantially larger in neurons treated at 59 DIV [20 DIV: ↑30% (95% CI: 16 to 44%); 65 DIV: ↑86% (95% CI: 59% to 113%)].
# as §2, §3, §4
# The steady state RNA levels of target transcripts were measured using TaqMan quantitative reverse-transcription PCR (qRT-PCR) assays. Total reaction volume was 10 uL, including 2 μl of cDNA, 1× Gene Expression Master mix (4369016, Thermo Fisher Scientific, Waltham, Mass.), and 1× TaqMan primer assay (Thermo Fisher Scientific). Cycling conditions were 2 minutes at 50° C., 10 minutes at 95° C., and 40 cycles of 15 seconds at 95° C. and 1 minute at 60° C., with readings taken at the 60° C. step of every cycle. Reactions were run on a BIO-RAD T1000 CFX96 thermocycler (Bio-Rad Laboratories, Hercules Calif.), with internal control (PPIA, Hs99999904_m1, Thermo Fisher Scientific) and target [UBE3A-AS, Hs01372957_m1; SNORD116-11, Hs04275268_gH; SNORD115, Hs04275288_gH; IPW, Hs03455409_s1; SNORD109A/B, AP47WVR (Thermo Fisher Scientific); UBE3A: forward […] (SEQ ID NO:500); reverse: […]
# UBE3A-AS [2] = experiment: UBE3A-AS steady state RNA (TaqMan qRT-PCR) in GABAergic iPSC-derived neurons; details: for IC50 Ratio relative to ASO-4.4.PS.L: equivalence; for IC50 Ratio relative to ASO-4.4.PS.L / Limit Exceeded (equivalence of IC50 relative to ASO-4.4.PS.L): two one-sided tests; for Relative Potency: relative to ASO-4.4.PS.L = 1
# [3] = Topo 1 μM, 14 DIV to 20 DIV, ASO-1 minus labelled treatment
# [4] = Topo 1 μM, 14 DIV to 20 DIV, ASO-R minus labelled treatment
# [5] = Topo 1 μM, 14 DIV to 20 DIV, Topo minus labelled treatment
# [6] = Topo 1 μM, treated 14 DIV, RNA 20 DIV, normalized to ASO-C, ASO-C minus labelled treatment
# [7] = 14 DIV to 20 DIV, ASO-5 minus labelled treatment
# [8] = Topo 1 μM, 14 DIV to 20 DIV, labelled treatment minus ASO-3
# [9] = Topo 1 μM, 14 DIV to 20 DIV, labelled treatment minus ASO-R
# [10] = Topo 1 μM, treated 14 DIV, RNA 20 DIV, normalized to ASO-C, labelled treatment minus ASO-C
# [11] = Cluster 1 ASOs, 18 DIV to 24 DIV, parallel model, 4 Parameter logistic (Hill)
# [12] = candidate ASOs, 18 DIV to 24 DIV
# [13] = candidate ASOs, 18 DIV to 24 DIV, 4-parameter logistic (Hill)
# [14] = candidate ASOs, treated 18 DIV, RNA 24 DIV, 10-point dose curve, n=2, full model, 4-parameter logistic (Hill)
# [15] = Topo 1 μM, 14 DIV to 20 DIV, labelled treatment minus ASO-6
Substance,"Difference, UBE3A-AS RNA level (UBE3A-AS [1]; [3])","Difference, UBE3A-AS RNA level (UBE3A-AS [1]; [4])","Difference, UBE3A-AS RNA level (UBE3A-AS [1]; [5])","Difference, UBE3A-AS RNA level (UBE3A-AS [1]; [6])","Difference, UBE3A-AS RNA level (UBE3A-AS [1]; 14 DIV to 20 DIV, ASO-3 minus labelled treatment)","Difference, UBE3A-AS RNA level (UBE3A-AS [1]; [7])","Difference, UBE3A RNA level (UBE3A; [8])","Difference, UBE3A RNA level (UBE3A; [9])","Difference, UBE3A RNA level (UBE3A; [10])",Cluster (hierarchical clustering of fitted dose response curves) (UBE3A-AS [1]),IC50 (UBE3A-AS [2]; [11]) [nM],IC50 Ratio relative to ASO-4.4.PS.L (UBE3A-AS [2]; Cluster 1 ASOs),"Relative Potency (UBE3A-AS [2]; Cluster 1 ASOs, parallel model)",Limit Exceeded (equivalence of IC50 relative to ASO-4.4.PS.L) (UBE3A-AS [2]; Cluster 1 ASOs),"30 μM (Mean), normalized UBE3A-AS RNA level relative to vehicle (UBE3A-AS [2]; [12])",Emax (normalized UBE3A-AS RNA level relative to vehicle) (UBE3A-AS [2]; [13]),IC50 (UBE3A-AS [2]; [14]) [nM],"Difference, UBE3A RNA level (UBE3A; Topo 1 μM, 14 DIV to 20 DIV, labelled treatment minus ASO-5)","Difference, UBE3A RNA level (UBE3A; [15])","Difference, UBE3A RNA level (UBE3A; 14 DIV to 20 DIV, labelled treatment minus Topo (1 μM))"
C^O*U^O*G^O*G^O*U^O*g*t*c*a*a*c*a*a*g*c*C^O*A^O*A^O*A^O*G^O [ASO-6],0.32,0.81,0.17,0.83,0.04,0.12,0.03,0.16,0.16,–,–,–,–,–,–,–,–,–,–,–
A^L*G^L*A^L-a*t*g*g*c*a*c*a*t*c*t-5mC^L*T^L*T^L*G^L (lA*lG*lAdA*dT*dG*dG*dC*dA*dC*dA*dT*dC*dTl[5mC]*lT*lT*lG) [ASO-4.4.PO-1.L],–,–,–,–,–,–,–,–,–,1,322,0.88,0.2,Lower,0.1,0.04,226,–,–,–
U^O*A^O*G^O*A^O*G^O*g*t*g*a*a*g*g*c*c*a*G^O*G^O*C^O*A^O*C^O [ASO-1],–,0.49,–,0.51,–,–,0.05,0.18,0.18,–,–,–,–,–,–,–,–,0.02,0.02,0.00
G^O*U^O*U^O*U^O*U^O*c*t*t*c*c*t*c*c*a*c*A^O*G^O*U^O*C^O*U^O [ASO-5],0.20,0.69,0.05,0.71,–,–,0.03,0.16,0.16,–,–,–,–,–,–,–,–,–,0.00,–
A^L*G^L-A^L*a-t*g-g*c-a*c-a*t-c*t-5mC^L*T^L*T^L*G^L (lA*lGlA*dAdT*dGdG*dCdA*dCdA*dTdC*dTl[5mC]*lT*lT*lG) [ASO-4.4.PO-2.L],–,–,–,–,–,–,–,–,–,3,–,–,–,–,0.6,−2.7,–,–,–,–
U^O*G^O*U^O*C^O*A^O*g*t*t*t*c*t*c*c*c*t*G^O*A^O*A^O*C^O*A^O [ASO-3],0.28,0.77,0.13,0.79,–,0.08,–,0.13,0.13,–,–,–,–,–,–,–,–,–,–,–
5mC^M*T^M*G^M*G^M*t*g*t*c*a*a*c*a*a*g*5mC^M*5mC^M*A^M*A^M [ASO-6.1.PS.M],–,–,–,–,–,–,–,–,–,–,153,0.90,0.3,equivalent IC50 values,0.02,−0.05,147,–,–,–
